pKi: −log10 of the molar value.
Key:
guinea pig σ1 receptors = guinea pig σ1 receptors (Cavia porcellus, UniProt Q60492); experiment: σ1 receptor affinity, competitive binding with [3H]-(+)-pentazocine (WWU); details: determined at WWU
Excerpt: To decide which of the nine compounds would be suitable for subsequent radiofluorination, we determined the affinity towards the σ1 receptor as the most relevant off-target protein. […] To finally select the best derivative for radiofluorination, we calculated the σ2:σ1 selectivity values and identified RM273 (41) as the most suitable one with a ratio of about 400.

σ2 receptor [1] = biological target: T1, σ2 receptor (Rattus norvegicus, UniProt Q5U3Y7); experiment: σ2 receptor affinity, inhibition of [3H]DTG binding in rat liver membrane homogenates; set-up: preparations of membrane homogenates obtained from rat liver; from tissue; host or cells: rat liver; details: for pKi: [3H]DTG, rat liver membrane homogenates
T1 sequence (Q5U3Y7 1-176): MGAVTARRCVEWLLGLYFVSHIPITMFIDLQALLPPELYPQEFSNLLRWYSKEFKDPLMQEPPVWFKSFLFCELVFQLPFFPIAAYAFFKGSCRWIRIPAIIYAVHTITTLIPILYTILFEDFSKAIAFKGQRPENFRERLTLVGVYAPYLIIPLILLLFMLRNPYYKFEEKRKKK
Protocol: Initially, we assessed the affinity of all derivatives towards the target protein and investigated the inhibition of the binding of [^3H]DTG in preparations of membrane homogenates obtained from rat liver, which is known to express high levels of σ2 receptors.
(§1) Binding affinity experiments to assess the Ki values of test compounds towards rat σ2 receptors, human σ1 receptors, and rat VAChT were performed according to protocols previously published by our group. The same protocol was used to determine the KD and Bmax values of RM273 towards σ2 receptors expressed in F98 cells by homologous competition analyzing the displacement of [^18F]RM273 by RM273.

rat VAChT = biological target: T2, rat VAChT (Rattus norvegicus, UniProt Q62666); experiment: Displacement of [3H]vesamicol in membrane homogenates of PC12 cells stably expressing rat VAChT; assay type: binding
T2 construct: expressed in transfected cells; host or cells: PC12 cells
T2 sequence (Q62666 1-530): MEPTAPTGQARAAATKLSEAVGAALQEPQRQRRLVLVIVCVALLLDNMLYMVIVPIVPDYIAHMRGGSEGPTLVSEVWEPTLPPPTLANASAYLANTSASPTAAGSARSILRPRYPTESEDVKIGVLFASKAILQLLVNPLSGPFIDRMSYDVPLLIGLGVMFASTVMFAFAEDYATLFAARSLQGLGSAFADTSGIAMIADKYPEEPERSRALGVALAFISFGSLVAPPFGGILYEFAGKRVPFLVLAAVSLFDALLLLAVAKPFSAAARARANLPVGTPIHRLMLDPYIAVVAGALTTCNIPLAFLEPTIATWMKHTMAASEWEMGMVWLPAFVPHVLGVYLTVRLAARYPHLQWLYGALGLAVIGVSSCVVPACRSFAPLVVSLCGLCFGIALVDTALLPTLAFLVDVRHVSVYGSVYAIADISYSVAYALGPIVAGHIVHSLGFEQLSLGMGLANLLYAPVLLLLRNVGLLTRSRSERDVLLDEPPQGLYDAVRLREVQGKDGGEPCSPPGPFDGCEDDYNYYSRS
Protocol: Because ligands targeting σ receptors may be impaired by off-target binding towards the vesicular acetylcholine transporter (VAChT), we determined in the next step the affinity of RM273 towards this protein.
as §1

human σ1 receptors = human σ1 receptors (Homo sapiens, UniProt Q99720); experiment: σ1 receptor affinity, competitive binding with [3H]-(+)-pentazocine (HZDR Leipzig); details: determined at HZDR Leipzig
Protocol: To decide which of the nine compounds would be suitable for subsequent radiofluorination, we determined the affinity towards the σ1 receptor as the most relevant off-target protein.
as §1

σ2 receptor [2] = biological target: T1, σ2 receptor; experiment: In vitro autoradiography on rat brain cryosections (healthy and orthotopic F98 glioblastoma); assay type: binding; set-up: from tissue; host or cells: rat brain cryosections (SPRD healthy; Fisher F344 with orthotopic F98 glioblastoma); details: autoradiography, co-incubation with competitor at 10^−6 M
Excerpt: Initially, we investigated the binding of [^18F]RM273 on rat brain slices by autoradiography to compare the distribution pattern with that of established σ2 receptor ligands and to examine the target specificity. The highest binding was found in the cortical areas and hippocampal structures. […] Accordingly, we proceeded to investigate, in a rat glioblastoma model, the potential suitability of [^18F]RM273 for molecular characterization of cancer. At first, homologous competition studies using membrane homogenates of the rat glioma cell line F98 were performed to determine the σ2 receptor binding parameters of [^18F]RM273 cells (Figure 3).
We subsequently investigated the binding parameters of [^18F]RM273 by in vitro autoradiography using cryosections of rat brains obtained three weeks after stereotactic implantation of F98 rat glioblastoma cells into the left striatum. Initially, we performed a homologous displacement study to directly compare the binding sites of the new radioligand in a healthy brain and a brain tumor. The inhibition curves presented in Figure 3 indicate binding of [^18F]RM273 to single binding sites in both brain regions. […] Further supporting the assumption of a tumor-specific overexpression of σ2 receptors, a remarkably high density of binding sites of [^18F]RM273 in the F98 tumor tissue was observed (Figure 4). Compared to the healthy tissue (contralateral side), about three times more specific binding sites of [^18F]RM273 were estimated for the tumor region (32 × 10^−9 mol/L vs. 94 × 10^−9 mol/L at 1.5 nM [^18F]RM273).
In vitro autoradiography was performed using cryosections of brains of a healthy rat (SPRD, female, 250 g; Medizinisch-Experimentelles Zentrum, Universität Leipzig, Leipzig, Germany) and brains obtained from rats (Fisher F344/HanZtmRj, male, ≈260 g; Janvier Labs, Le Genest-Saint-Isle, France) 23 days after stereotactic implantation of 5 × 10^4 F98 cells in the […] striatum (n = 2).
Immediately after isolation, the brains were frozen by immersion in isopentane at −25 °C. Cryosections of 12 μm (Microm HM560 cryostat, Thermo Scientific, Schwerte, Germany) were mounted on microscopic glass slides, dried at room temperature, and stored at −25 °C. For the experiment, the slices were dried at room temperature under a stream of cold air before pre-incubation in PBS, pH 7.4, at room temperature for 15 min. […] Co-incubation with serial dilutions of RM273 (10^−10–10^−6 M) was performed to determine an inhibition curve. After 60 min, the incubation at room temperature was terminated by decanting and washing the slides by two consecutive incubations in ice-cold washing buffer (50 mM TRIS-HCl, pH 7.4 at 4 °C) for two min each, followed by dipping in ice-cold demineralized water for 5 sec and drying under a stream of cold air. In parallel, for subsequent quantification of the data obtained from the homologous competition experiment, defined volumes, and thus defined activities of the radioligand solution, were pipetted onto a microscopic glass slide (0.5–3 μL = 0.0355–0.213 kBq) and dried. Afterwards the tissue samples along with the standards were exposed to an ^18F-sensitive phosphor screen (ABC) for two hours. Image acquisition was performed using a phosphorimager (HD-CR 35; DÜRR NDT GmbH & Co. KG, Bietigheim-Bissingen, Germany). Analysis of the digitized images was performed by image analysis software (AIDA; Elysia-raytest GmbH, Straubenhardt, Germany).
Irregular regions of interest (ROI) were drawn on the standard spots and the different brain regions, which were confirmed by Nissl staining of the identical brain sections. Optical density measured in each ROI was expressed as quantum levels per unit area (QL/pixel) with a pixel size of 12.5 μm^2. From the calibration curve obtained from the standards by plotting QL vs. activity, the QL values of the ROIs were converted to activity values followed by conversion to chemical concentration of RM273 based on the molar activity of [^18F]RM273. […]

[3] = set-up: method as in PMID 17579383; details: 5 min p.i. ref 25; cited from earlier work
[4] = Ki σ1 from guinea pig σ1 receptors

guinea pig σ1 receptors, sequence (Q60492 whole entry): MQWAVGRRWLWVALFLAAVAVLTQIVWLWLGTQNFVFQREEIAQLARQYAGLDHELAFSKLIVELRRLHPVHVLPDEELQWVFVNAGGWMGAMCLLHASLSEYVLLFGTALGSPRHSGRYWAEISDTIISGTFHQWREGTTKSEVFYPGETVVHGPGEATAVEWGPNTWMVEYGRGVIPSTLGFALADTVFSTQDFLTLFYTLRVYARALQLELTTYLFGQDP
human σ1 receptors, sequence (Q99720 whole entry): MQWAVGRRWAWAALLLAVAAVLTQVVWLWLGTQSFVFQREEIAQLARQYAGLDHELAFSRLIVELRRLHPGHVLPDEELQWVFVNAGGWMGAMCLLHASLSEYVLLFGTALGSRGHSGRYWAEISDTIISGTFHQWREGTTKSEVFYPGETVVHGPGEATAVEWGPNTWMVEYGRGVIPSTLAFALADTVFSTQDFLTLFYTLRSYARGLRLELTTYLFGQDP

| SMILES | pKi (guinea pig σ1 receptors) | Selectivity (Ki σ1/Ki σ2) (σ2 receptor [1]; [4]) | pKi (σ2 receptor [1]) | Selectivity (Ki σ1/Ki σ2) (σ2 receptor [1]; Ki σ1 from human σ1 receptors) | pKi (human σ1 receptors) | further results |
| --- | --- | --- | --- | --- | --- | --- |
| COc1cc2c(cc1OC)CN(CCCCn1ccc3ccnc(F)c31)CC2 [42 (RM297), 2-[4-(7-Fluor-1H-pyrrolo[2,3-c]pyridin-1-yl)butyl]-6,7-dimethoxy-1,2,3,4-tetrahydroisochinolin] | 6.04 | 339 | 8.57 |  |  |  |
| COc1cc2c(cc1OC)CN(CCCCn1ccc3ccc(F)nc31)CC2 [41 (RM273), 2-(4-(6-Fluoro-1H-pyrrolo[2,3-b]pyridin-1-yl)butyl)-6,7-dimethoxy-1,2,3,4-tetrahydroisoquinoline] | 6.16 | 432 | 8.80 |  |  | pKi (rat VAChT): < 5.70; Selectivity (Ki σ1/Ki σ2) (σ2 receptor [1]; Ki σ1 from guinea pig σ1 receptors, listed as RM273 (41)): about 400 |
| COc1cc2c(cc1OC)CN(CCCCn1ccc3cc(F)ccc31)CC2 [Compound 35, 2-(4-(5-Fluoro-1H-indol-1-yl)butyl)-6,7-dimethoxy-1,2,3,4-tetrahydroisoquinoline] |  |  | 7.92 | 9.7 | 6.94 |  |
| COc1cc2c(cc1OC)CN(CCCCn1ccc3cccc(F)c31)CC2 [Compound 37, 2-(4-(7-Fluoro-1H-indol-1-yl)butyl)-6,7-dimethoxy-1,2,3,4-tetrahydroisoquinoline] |  |  | 8.00 | 8 | 7.10 |  |
| COc1cc2c(cc1OC)CN(CCCCn1ccc3ccc(F)cc31)CC2 [Compound 36, 2-(4-(6-Fluoro-1H-indol-1-yl)butyl)-6,7-dimethoxy-1,2,3,4-tetrahydroisoquinoline] |  |  | 8.15 | 6.5 | 7.34 |  |
| COc1cc2c(cc1OC)CN(CCCCn1ccc3c(F)cccc31)CC2 [Compound 34, 2-[4-(4-Fluoro-1H-indol-1-yl)butyl]-6,7-dimethoxy-1,2,3,4-tetrahydroisoquinoline] |  |  | 7.85 | 1.5 | 7.68 |  |
| COc1cccc2c1CCCC2CCCN1CCN(C2CCCCC2)CC1 (centres unmarked) [PB28, reference compound] |  |  |  |  |  | displacement of [18F]RM273 binding on rat brain slices (σ2 receptor [2]): completely displaceable |
| Fc1ccc(-n2cc(CCCCN3CCC4(CC3)OCc3ccccc34)c3ccccc32)cc1 [Siramesine, siramesine, reference compound] |  |  |  |  |  | displacement of [18F]RM273 binding on rat brain slices (σ2 receptor [2]): completely displaceable |
| COc1cc2c(cc1OC)CN(CCCCNC(=O)c1cc(C)ccc1OCC[18F])CC2 [[^18F]ISO-I] |  |  |  |  |  | brain uptake [3]: 0.76 % ID/g |

Further lines, with some results ahead:

| pKi (guinea pig σ1 receptors) | Selectivity (Ki σ1/Ki σ2) (σ2 receptor [1]; [4]) | pKi (σ2 receptor [1]) | Selectivity (Ki σ1/Ki σ2) (σ2 receptor [1]; Ki σ1 from human σ1 receptors) | pKi (human σ1 receptors) | SMILES | further results |
| --- | --- | --- | --- | --- | --- | --- |
| 6.91 | 32 | 8.42 |  |  | COc1cc2c(cc1OC)CN(CCCCn1ccc3nc(F)ccc31)CC2 [Compound 39, 2-[4-(5-Fluor-1H-pyrrolo[3,2-b]pyridin-1-yl)butyl]-6,7-dimethoxy-1,2,3,4-tetrahydroisochinolin] |  |
| 7.07 | 85 | 9.00 |  |  | COc1cc2c(cc1OC)CN(CCCCn1ccc3cc(F)ncc31)CC2 [Compound 40, 2-[4-(5-Fluor-1H-pyrrolo[2,3-c]pyridin-1-yl)butyl]-6,7-dimethoxy-1,2,3,4-tetrahydroisochinolin] |  |
| 7.10 | 14 | 8.26 |  |  | COc1cc2c(cc1OC)CN(CCCCn1ccc3c(F)nccc31)CC2 [Compound 38, 2-[4-(4-Fluor-1H-pyrrolo[3,2-c]pyridin-1-yl)butyl]-6,7-dimethoxy-1,2,3,4-tetrahydroisochinolin] |  |
